Measurements published in US10392368B2, “Pyrazolo and triazolo bicyclic compounds as JAK kinase inhibitors” (THERAVANCE BIOPHARMA R&D IP, LLC, priority 2017, dated 2019).

Assays:
JAK1 = target: T1, JAK1 (Homo sapiens, UniProt P23458); test: Biochemical JAK1 kinase assay (LanthaScreen); settings: for Ki: read-out: JAK 1 (pKi) (converted)
T1 construct: GST; purchased Life Technologies
How it was run: (§1)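 TR-FRET read-out: terbium anti-pSTAT1 (pTyr701) antibody, 2 nM, with 10 mM EDTA quench, emission ratio 520/495 nm. GST-JAK phosphorylates GFP-STAT1 peptide for 1 h at ambient temperature after 1 h compound pre-incubation. pIC50 from dose-response converted to pKi by Cheng-Prusoff.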

[1] = system: IL-2 stimulated pSTAT5 in Tall-1 T cells; test: Cellular JAK3 potency assay: inhibition of IL-2 stimulated pSTAT5 in Tall-1 T cells; assay type: cell-based, human; settings: for IC50: Homo sapiens, TALL-1, IL-2 stimulated pSTAT5, Tall-1 T cells, read-out: Tall-1 (pIC50) (converted); for Tall-1 (pIC50): IL-2 stimulated pSTAT5, Tall-1 T cells
How it was run: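 Tall-1 human T cells (45,000/well) in phenol red-free DMEM with 10% FBS were preincubated with compound 1 h at 37 °C, then stimulated with IL-2 (final 300 ng/ml) for 30 min. Lysate pSTAT5 read by AlphaLisa; IC50 from inhibition curves, reported as pIC50 (mean±SD).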

JAK3 = target: T2, JAK3 (Homo sapiens, UniProt P52333); test: Biochemical JAK3 kinase assay (LanthaScreen); design: GST; purchased Life Technologies; settings: for Ki: read-out: JAK 3 (pKi) (converted); for JAK3 (pKi)-JAK1 (pKi): selectivity JAK3 over JAK1, difference of pKi
T2 sequence (P52333 1-1124): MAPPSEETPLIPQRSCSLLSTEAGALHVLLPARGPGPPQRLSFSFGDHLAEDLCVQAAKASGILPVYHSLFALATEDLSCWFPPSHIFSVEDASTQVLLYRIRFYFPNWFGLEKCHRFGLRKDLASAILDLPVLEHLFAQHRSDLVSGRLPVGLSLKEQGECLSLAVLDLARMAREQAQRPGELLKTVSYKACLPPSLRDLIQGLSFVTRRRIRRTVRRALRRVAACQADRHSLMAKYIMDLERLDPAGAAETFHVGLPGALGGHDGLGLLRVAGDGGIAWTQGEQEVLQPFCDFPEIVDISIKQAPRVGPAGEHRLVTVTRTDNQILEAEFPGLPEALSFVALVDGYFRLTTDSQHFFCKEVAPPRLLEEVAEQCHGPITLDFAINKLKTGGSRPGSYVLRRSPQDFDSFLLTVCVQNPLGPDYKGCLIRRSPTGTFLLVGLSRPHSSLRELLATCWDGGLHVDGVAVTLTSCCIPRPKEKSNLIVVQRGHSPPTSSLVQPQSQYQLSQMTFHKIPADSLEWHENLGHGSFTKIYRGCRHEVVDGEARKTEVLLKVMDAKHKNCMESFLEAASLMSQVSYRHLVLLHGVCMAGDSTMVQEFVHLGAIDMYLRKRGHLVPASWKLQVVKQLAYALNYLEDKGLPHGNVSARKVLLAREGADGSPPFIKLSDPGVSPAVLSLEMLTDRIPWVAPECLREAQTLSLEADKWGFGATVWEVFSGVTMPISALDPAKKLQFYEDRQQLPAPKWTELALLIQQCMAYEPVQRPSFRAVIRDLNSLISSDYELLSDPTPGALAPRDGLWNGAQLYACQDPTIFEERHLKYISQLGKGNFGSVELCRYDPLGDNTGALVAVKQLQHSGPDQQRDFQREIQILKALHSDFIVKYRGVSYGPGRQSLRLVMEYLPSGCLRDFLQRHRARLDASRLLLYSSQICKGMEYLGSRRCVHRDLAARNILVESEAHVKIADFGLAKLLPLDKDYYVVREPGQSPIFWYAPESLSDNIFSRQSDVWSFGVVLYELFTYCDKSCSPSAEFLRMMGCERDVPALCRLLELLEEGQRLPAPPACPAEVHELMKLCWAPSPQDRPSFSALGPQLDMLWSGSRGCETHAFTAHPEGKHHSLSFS
How it was run: as §1

T1 sequence (P23458 whole entry): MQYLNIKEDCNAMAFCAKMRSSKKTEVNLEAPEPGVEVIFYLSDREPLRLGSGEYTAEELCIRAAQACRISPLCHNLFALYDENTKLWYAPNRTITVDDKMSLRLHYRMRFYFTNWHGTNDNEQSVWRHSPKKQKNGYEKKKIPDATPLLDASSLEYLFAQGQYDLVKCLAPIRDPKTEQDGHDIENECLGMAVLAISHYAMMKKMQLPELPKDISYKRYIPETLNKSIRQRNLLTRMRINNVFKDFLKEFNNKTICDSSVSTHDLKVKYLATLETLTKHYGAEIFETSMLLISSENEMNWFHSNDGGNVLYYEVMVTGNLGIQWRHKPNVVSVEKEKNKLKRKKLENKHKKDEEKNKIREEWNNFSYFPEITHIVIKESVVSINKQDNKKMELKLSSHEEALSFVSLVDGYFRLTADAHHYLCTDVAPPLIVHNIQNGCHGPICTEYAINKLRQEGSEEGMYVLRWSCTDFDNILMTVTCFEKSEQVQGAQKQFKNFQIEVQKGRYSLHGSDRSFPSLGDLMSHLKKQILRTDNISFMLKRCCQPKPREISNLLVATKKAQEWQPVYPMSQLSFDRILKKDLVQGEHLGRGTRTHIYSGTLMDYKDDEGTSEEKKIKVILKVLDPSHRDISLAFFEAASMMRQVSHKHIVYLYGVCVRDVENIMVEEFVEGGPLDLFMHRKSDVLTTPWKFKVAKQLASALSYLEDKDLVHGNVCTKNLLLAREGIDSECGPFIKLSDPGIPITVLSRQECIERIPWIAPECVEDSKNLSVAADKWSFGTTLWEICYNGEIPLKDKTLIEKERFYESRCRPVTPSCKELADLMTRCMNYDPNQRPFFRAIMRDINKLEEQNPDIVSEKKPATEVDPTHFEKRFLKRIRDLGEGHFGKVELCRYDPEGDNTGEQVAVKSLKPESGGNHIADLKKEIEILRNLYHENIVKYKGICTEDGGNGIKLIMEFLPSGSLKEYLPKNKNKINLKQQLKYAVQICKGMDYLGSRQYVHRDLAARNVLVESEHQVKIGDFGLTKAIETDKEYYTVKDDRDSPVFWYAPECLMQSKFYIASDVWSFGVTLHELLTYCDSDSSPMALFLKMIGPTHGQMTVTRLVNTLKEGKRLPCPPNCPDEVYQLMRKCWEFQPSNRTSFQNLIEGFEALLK

Structure (SMILES)	Ki (JAK1) [nM]	IC50 [1] [nM]	Ki (JAK3) [nM]	JAK3 (pKi)-JAK1 (pKi) (JAK3)	JAK 1 (pKi) (JAK1)	Tall-1 (pIC50) [1]	JAK 3 (pKi) (JAK3)
CN(C)C/C=C/C(=O)N1CC[C@@H](COc2cc(-c3ccc(O)cc3)cc3[nH]ncc23)C1 [Compound 12-19]	> 100	200 to 1000	< 0.1	A (a value of 3 or above)	–	–	–
C=CC(=O)N1CC2(CC(Oc3cc(-c4ccc(O)cc4)cc4[nH]ncc34)C2)C1 [Compound 12-21]	> 100	< 31.6	0.1 to 1	B (a value of 2.3 to 3)	–	–	–
CN(C)C/C=C/C(=O)N1CC[C@@H]1COc1cc(-c2ccc(O)cc2)cc2[nH]ncc12 [Compound 12-22]	> 100	200 to 1000	0.1 to 1	A (a value of 3 or above)	–	–	–
C=CC(=O)N1CC[C@@H]1COc1cc(-c2ccc(O)cc2)cc2[nH]ncc12 [Compound 12-23]	> 100	31.6 to 200	0.1 to 1	A (a value of 3 or above)	–	–	–
CN(C)C/C=C/C(=O)N1CC[C@H]1COc1cc(-c2ccc(O)cc2)cc2[nH]ncc12 [Compound 12-24]	> 100	200 to 1000	0.1 to 1	A (a value of 3 or above)	–	–	–
C=CC(=O)N1CC[C@H]1COc1cc(-c2ccc(O)cc2)cc2[nH]ncc12 [Compound 12-25]	> 100	200 to 1000	0.1 to 1	B (a value of 2.3 to 3)	–	–	–
C=CC(=O)N1CC(F)(C2(Oc3cc(-c4ccc(O)cc4)cc4[nH]ncc34)CC2)C1 [Compound 12-37]	10 to 100	31.6 to 200	0.1 to 1	B (a value of 2.3 to 3)	–	–	–
C=CC(=O)N1CCCC(C(=O)Nc2cc(-c3ccc(O)cc3)cc3[nH]ncc23)C1 (stereo not shown) [Compound 12-40]	> 100	200 to 1000	0.1 to 1	B (a value of 2.3 to 3)	–	–	–
CN(C)C/C=C/C(=O)N1CC2(CC(Oc3cc(-c4ccc(O)cc4)cc4[nH]ncc34)C2)C1 [Compound 12-52]	10 to 100	200 to 1000	0.1 to 1	B (a value of 2.3 to 3)	–	–	–
C=CC(=O)N1CCC[C@@H](C(=O)Nc2cc(-c3ccc(O)cc3)cc3[nH]ncc23)C1 [Compound 12-55]	> 100	31.6 to 200	< 0.1	A (a value of 3 or above)	–	–	–
C=CC(=O)N1CCC[C@H](C(=O)Nc2cc(-c3ccc(O)cc3)cc3[nH]ncc23)C1 [Compound 12-56]	> 100	31.6 to 200	< 0.1	A (a value of 3 or above)	–	–	–
C=CC(=O)N1CCC(C(=O)Nc2cc(-c3ccc(O)cc3)cc3[nH]ncc23)CC1 [Compound 12-59]	> 100	31.6 to 200	< 0.1	A (a value of 3 or above)	–	–	–
C=CC(=O)N1C[C@H](C(=O)Nc2cc(-c3ccc(O)cc3)cc3[nH]ncc23)OC(C)(C)C1 [Compound 12-62]	> 100	31.6 to 200	< 0.1	A (a value of 3 or above)	–	–	–
C=CC(=O)N1CC[C@H]1C(=O)Nc1cc(-c2ccc(O)cc2)cc2[nH]ncc12 [Compound 12-69]	> 100	31.6 to 200	< 0.1	A (a value of 3 or above)	–	–	–
C=CC(=O)N1CCO[C@@H](C(=O)Nc2cc(-c3ccc(O)c(F)c3)cc3[nH]ncc23)C1 [Compound 13-3]	–	–	–	A (a value of 3 or above)	E (a pKi value of 7 or below (Ki of 100 nM or above))	A (a pIC50 value≥7.5 (IC50≤32 nM))	A (a pKi value≥10 (Ki≤0.1 nM))
C=CC(=O)N1CC2(CCC2Oc2nc(-c3ccc(O)c(Cl)c3)nc3[nH]ncc23)C1 (stereo not shown) [Compound 13-17]	–	–	–	A (a value of 3 or above)	E (a pKi value of 7 or below (Ki of 100 nM or above))	B (a pIC50 value between 6.7 (included) and 7.5 (IC50 between 200 nM and 32 nM))	A (a pKi value≥10 (Ki≤0.1 nM))
C=CC(=O)N1CC2(CCC2Oc2nc(-c3ccc(O)c(F)c3)nc3[nH]ncc23)C1 (stereo not shown) [Compound 13-18]	–	–	–	A (a value of 3 or above)	E (a pKi value of 7 or below (Ki of 100 nM or above))	B (a pIC50 value between 6.7 (included) and 7.5 (IC50 between 200 nM and 32 nM))	B (a pKi value between 9 and 10 (Ki between 1 nM and 0.1 nM))
CN(C)C/C=C/C(=O)N1CCC(COc2cc(-c3ccc(O)c(Cl)c3)cc3[nH]ncc23)CC1 [Compound 14-3]	–	–	–	B (a value of 2.3 to 3)	E (a pKi value of 7 or below (Ki of 100 nM or above))	B (a pIC50 value between 6.7 (included) and 7.5 (IC50 between 200 nM and 32 nM))	B (a pKi value between 9 and 10 (Ki between 1 nM and 0.1 nM))
CN(C)C/C=C/C(=O)N1CCC(COc2cc(-c3ccc(O)c(F)c3)cc3[nH]ncc23)CC1 [Compound 14-4]	–	–	–	B (a value of 2.3 to 3)	D (a pKi value between 7 and 8 (Ki between 100 nM and 10 nM))	B (a pIC50 value between 6.7 (included) and 7.5 (IC50 between 200 nM and 32 nM))	B (a pKi value between 9 and 10 (Ki between 1 nM and 0.1 nM))
C=CC(=O)N1CCC(COc2cc(-c3ccc(O)c(F)c3)cc3[nH]ncc23)CC1 [Compound 14-5]	–	–	–	B (a value of 2.3 to 3)	D (a pKi value between 7 and 8 (Ki between 100 nM and 10 nM))	A (a pIC50 value≥7.5 (IC50≤32 nM))	B (a pKi value between 9 and 10 (Ki between 1 nM and 0.1 nM))
C=CC(=O)N1CCC(COc2nc(-c3ccc(O)cc3)cc3[nH]ncc23)CC1 [Compound 14-6]	–	–	–	B (a value of 2.3 to 3)	D (a pKi value between 7 and 8 (Ki between 100 nM and 10 nM))	A (a pIC50 value≥7.5 (IC50≤32 nM))	A (a pKi value≥10 (Ki≤0.1 nM))
C=CC(=O)N1CCC(COc2nc(-c3ccc(O)c(Cl)c3)cc3[nH]ncc23)CC1 [Compound 14-7]	–	–	–	B (a value of 2.3 to 3)	D (a pKi value between 7 and 8 (Ki between 100 nM and 10 nM))	A (a pIC50 value≥7.5 (IC50≤32 nM))	A (a pKi value≥10 (Ki≤0.1 nM))
C=CC(=O)N1CCC(COc2nc(-c3ccc(O)c(F)c3)cc3[nH]ncc23)CC1 [Compound 14-8]	–	–	–	B (a value of 2.3 to 3)	D (a pKi value between 7 and 8 (Ki between 100 nM and 10 nM))	A (a pIC50 value≥7.5 (IC50≤32 nM))	A (a pKi value≥10 (Ki≤0.1 nM))
CN(C)C/C=C/C(=O)N1CCC(COc2nc(-c3ccc(O)c(Cl)c3)cc3[nH]ncc23)CC1 [Compound 14-10]	–	–	–	C (a value of 1.8 to 2.3)	D (a pKi value between 7 and 8 (Ki between 100 nM and 10 nM))	C (a pIC50 value between 6 and 6.7 (IC50 between 1 μM and 200 nM))	B (a pKi value between 9 and 10 (Ki between 1 nM and 0.1 nM))
CN(C)C/C=C/C(=O)N1CCC(COc2nc(-c3ccc(O)c(F)c3)cc3[nH]ncc23)CC1 [Compound 14-11]	–	–	–	B (a value of 2.3 to 3)	D (a pKi value between 7 and 8 (Ki between 100 nM and 10 nM))	C (a pIC50 value between 6 and 6.7 (IC50 between 1 μM and 200 nM))	B (a pKi value between 9 and 10 (Ki between 1 nM and 0.1 nM))
